According to patent US20090062721A1, “IONTOPHORESIS DEVICE AND METHOD OF MANUFACTURING THE SAME” (TTI ELLEBEAU INC., priority 2006, published 2009):
Counter-ions that a name gives are not always drawn.

Experiment: pH of aqueous lidocaine hydrochloride solution brought into contact with an activated carbon fiber polarizable electrode
Assay type: physicochemical
Conditions: after contact with polarizable electrode composed of activated carbon fibers, within an extremely short time period

CCN(CC)CC(=O)Nc1c(C)cccc1C [lidocaine hydrochloride]
pH value of aqueous solution: about 2.5
